Measurements from PMC6504997 (ACS chemical biology, 2018).

Molecular target: EXOSC3 (GST-EXOSC3, EXOSC3-WT) (Homo sapiens, UniProt Q9NQT5)
Assay: MST, inhibition of RNA binding
Conditions: 3.12 μM long G-rich RNA (GGGAGGGAGGGAGAGGGA)

Sequence of EXOSC3 (GST-EXOSC3, EXOSC3-WT) (Q9NQT5 whole entry): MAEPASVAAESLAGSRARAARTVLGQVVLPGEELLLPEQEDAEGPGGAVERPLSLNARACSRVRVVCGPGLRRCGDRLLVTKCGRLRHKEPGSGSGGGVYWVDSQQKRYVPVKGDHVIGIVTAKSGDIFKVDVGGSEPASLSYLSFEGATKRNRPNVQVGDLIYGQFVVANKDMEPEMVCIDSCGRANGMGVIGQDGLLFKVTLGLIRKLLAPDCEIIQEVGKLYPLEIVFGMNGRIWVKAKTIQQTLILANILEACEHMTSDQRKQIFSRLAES

% inhibition at 50 μM: 54 ± 10%
Structure (SMILES): CC(C)(O)CCc1cccc(C(=O)N2Cc3ccccc3C(O)C2)c1 (stereo not shown) [ERD03, EXOSC3-RNA disrupting (ERD) compound 3]
